Measurements as given in patent US20240316001A1, “USE OF PHARMACEUTICAL COMPOSITION COMPRISING CHLOROGENIC ACID IN PREPARATION OF DRUG FOR TREATING EARLY ALZHEIMER'S DISEASE” (SICHUAN JIUZHANG BIOLOGICAL SCIENCE AND TECHNOLOGY CO., LTD., priority 2021, published 2024).

Columns and labels:
[1] = test system: chronic cerebral hypoperfusion model rats (bilateral carotid artery ligation; simulated early AD); assay: Morris water maze orientation navigation experiment in chronic cerebral hypoperfusion model rats; format: in vivo, Sprague Dawley (SD) rats; details: for average escape latency in Morris water maze experiment / searching distance in Morris water maze experiment: after 20 consecutive days of administration, CGA 60 mg/kg/d i.p., 3-coumaroylquinic acid alone 0.03 mg/kg/d i.p., sodium oligomannate 100 mg/kg/d gavage, mean±SD, n=10; for escape latency and searching distance of rats compared with the model group (in words): Morris water maze, over the 5-day experiment, versus model group
Text: (§1) In this experiment, the occurrence of mild AD in humans after chronic cerebral hypoperfusion was simulated by performing bilateral carotid artery ligation in rats, and the intervention of the pharmaceutical composition according to the present invention on the learning and memory ability of these rats was observed, in order to investigate the therapeutic effect of the pharmaceutical composition according to the present invention on early AD.
(§2) 2.1. Experimental Animals: 6-8 Week Old, SPF Grade, Male Sprague Dawley (SD) Healthy Rats, Weighing 280-300 g.
(§3) A chronic cerebral hypoperfusion model was established by bilateral carotid artery ligation. Rats were acclimated to the environment for 1 week, and then fasted for 12 h and water-deprivated for 4 h before surgery. The rats were anesthetized with 0.4% pentobarbital sodium (0.5 mL/100 g i.p.), and fixed in a supine position on the operating table. Hair was removed from the skin in front of the neck. The naked skin was disinfected with iodine, and then the rats were incised in the middle of the neck. The subcutaneous superficial fascia was bluntly separated, and then the sternocleidomastoideole and sternohyoid muscle were carefully separated along both sides of the trachea, with arterial sheath visible; the bilateral common carotid arteries were separated and exposed with a glass needle, to bury the thread, and then double ligated with silk thread. The blood vessels between the two ligation points were cut off. The incision was sutured layer by layer and disinfected, followed by waiting for awakening of rats. During the operation, incandescent lamp irradiation was used to maintain the anal temperature of rats at 36.5° C.-37.5° C. After surgery, each rat was placed in a single cage to prevent suffocation.
(§4) 10 healthy SD rats with suitable body weight (within the required range) were randomly selected as the normal control group. 80 successfully modeled rats were randomly divided into 8 groups, with 10 rats in each group. They were named as follows: model control group (n=10), CGA treatment group (n=10), 3-coumaroylquinic acid treatment group (n=10), CGA+3-coumaroylquinic acid (100:0.01) treatment group (n=10), CGA+3-coumaroylquinic acid (100:0.05) treatment group (n=10), CGA+3-coumaroylquinic acid (100:0.5) treatment group (n=10), CGA+3-coumaroylquinic acid (100:1) treatment group (n=10), sodium oligomannate treatment group (n=10), and thus, there are […], along with the normal control group (n=10), for a total of 90 rats.
In this experiment, except for sodium oligomannate treatment group, which was administered by gavage, all other treatment groups were administered by intraperitoneal injection to each group of rats. The blank group and model group were given the solvent physiological saline by intraperitoneal injection. Rats in each treatment group were administrated one week after modeling surgery. Then, after 20 consecutive days of administration, the experiment was carried out. The administration continued during the experiment. At the same time, both the blank group and the model group were given an equal amount of physiological saline. […]

[2] = test system: chronic cerebral hypoperfusion model rats (bilateral carotid artery ligation; simulated early AD); assay: Morris water maze space exploration experiment in chronic cerebral hypoperfusion model rats; format: in vivo, Sprague Dawley (SD) rats; details: for searching time in the quadrant of the original platform compared with the model group (in words): Morris water maze space exploration, versus model group; for Time spent in the original platform quadrant: platform removed, after the orientation navigation experiment, CGA 60 mg/kg/d i.p., 3-coumaroylquinic acid alone 0.03 mg/kg/d i.p., sodium oligomannate 100 mg/kg/d gavage, mean±SD, n=10
Text: as §1, §2, §3, §4
In this experiment, except for sodium oligomannate treatment group, which was administered by gavage, all other treatment groups were administered by intraperitoneal injection to each group of rats. […]

Row | Compound | average escape latency in Morris water maze experiment ([1]; Day 1) [s] | searching distance in Morris water maze experiment ([1]; Day 1) [cm] | average escape latency in Morris water maze experiment ([1]; Day 2) [s] | searching distance in Morris water maze experiment ([1]; Day 2) [cm] | average escape latency in Morris water maze experiment ([1]; Day 3) [s] | searching distance in Morris water maze experiment ([1]; Day 3) [cm] | average escape latency in Morris water maze experiment ([1]; Day 4) [s] | searching distance in Morris water maze experiment ([1]; Day 4) [cm] | average escape latency in Morris water maze experiment ([1]; Day 5) [s] | searching distance in Morris water maze experiment ([1]; Day 5) [cm] | escape latency and searching distance of rats compared with the model group (in words) [1] | searching time in the quadrant of the original platform compared with the model group (in words) [2] | Time spent in the original platform quadrant [2] [s]
1 | O=C(/C=C/c1ccc(O)cc1)O[C@@H]1C[C@](O)(C(=O)O)C[C@@H](O)[C@H]1O [3-coumaroylquinic acid] | 98.1 ± 16.8 | 1127.3 ± 117.2 | 94.2 ± 15.3 | 954.5 ± 119.3 | 81.5 ± 13.7 | 892.6 ± 106.2 | 75.4 ± 16.3 | 577.1 ± 72.5 | 51.8 ± 14.2 | 407.1 ± 44.3 | almost no improvement | almost no extension | 30.2 ± 7.8
2 | O=C(/C=C/c1ccc(O)c(O)c1)O[C@@H]1C[C@](O)(C(=O)O)C[C@@H](O)[C@H]1O [CGA, 3-O-caffeoylquinic acid] | 95.4 ± 15.1 | 1125.6 ± 108.4 | 89.2 ± 17.5 | 944.3 ± 102.5 | 75.6 ± 12.6 | 844.8 ± 99.1 | 70.7 ± 14.5 | 560.9 ± 64.2 | 46.3 ± 10.6 | 395.2 ± 42.7 | almost no improvement | almost no extension | 32.6 ± 8.5
